SMILES strings stand for the structures.

Data set [1] can be described thus: Compound toxicity by ATPLite (total ATP levels). Type of data set: cell-based. The conditions noted are these: human, three days after compound addition, 50% reduction of total ATP. Here is the method:
Methods: HepAD38 cells are maintained as previously reported (Ladner et al, Antimicrob. Agents Chemother. 1997, […], 1715). Briefly, cells are passaged upon attaining confluency in DMEM/F12 media in the presence of 10% FBS, Penn/Strep, 250 μg/mL G418, and 1 ug/ml tetracycline. Novel compounds are screened by first washing cells three times with PBS to remove tetracycline, and plating in 96 well plates at 35,000 cells/well. Compounds dissolved in DMSO are then diluted 1:200 into wells containing cells. Five days after compound addition, material is harvested for analysis. For an extended 8 days analysis, cells are plated and treated as described above, but media and compound are refreshed on d2 and d5 post initial treatment.
Compound toxicity is evaluated by seeding cells at 15,000 cells/well and treating with compound as described above.
(In ATP-based viability assays light output follows the ATP content of the culture.)

For another data set, the system named is HBV. Kind of data set: HepAD38 antiviral assay: reduction of viral product accumulation (virion DNA by qPCR, HBsAg or HBeAg by ELISA). The format is cell-based, hepatitis B virus. The conditions noted are these: Hepatitis B virus, 120 h; HepAD38 cells, five days after compound addition; 50% reduction of viral product vs no drug controls; read-out: HepAD38 EC50. An outline of the steps: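 Tetracycline-free HepAD38 cells exposed to compound (DMSO stock diluted 1:200) for 5 days, or 8 days with media and compound refreshed on d2 and d5. Virion DNA quantified by qPCR after lysis; HBsAg or HBeAg measured by ELISA on diluted samples.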

In general, CC50 refers to the concentration that lowers cell viability or growth by half. High values mean better tolerance by the cells, low ones harm at low concentration. In general, EC50 refers to the concentration at which the effect is half-maximal. `C[C@@H](O)CNC(=O)C[C@]1(O)C2CCC1C[C@@H](S(=O)(=O)c1cc(C(=O)Nc3ccc(F)c(F)c3)ccc1Cl)C2` [Example 186] came in with a CC50 at 3 days in data set [1] (numeric bounds) above 12500 nM. The concentration for a half-maximal effect (EC50) in the data set with HBV is below 104 nM. For `[2H]C1([2H])C2C[C@]([2H])(S(=O)(=O)c3cc(C(=O)Nc4ccc(F)c(F)c4)ccc3Cl)CC(C1([2H])[2H])[C@]2(O)CO` [Example 272], in data set [1] (class symbols), the cytotoxic concentration (CC50) at 3 days is above 25000 nM. Moreover, the EC50 in the data set on HBV was below 104 nM. `C=CCc1cc(Cl)c(S(=O)(=O)[C@H]2CC3CCC(C2)[C@@]3(C)O)cc1C(=O)Nc1ccc(F)c(F)c1` [Example 135] came in with a CC50 at 3 days in data set [1] (class symbols) below 10000 nM. For the same compound, in the data set on HBV, the concentration giving a half-maximal response (EC50) was below 104 nM. For `CC(O)CNC(=O)C[C@]1(O)C2CCC1C[C@@H](S(=O)(=O)c1cc(C(=O)Nc3cc(F)c(F)c(F)c3)ccc1Cl)C2` (stereo partly drawn) [Example 54] the same measures were above 25000 nM and below 104 nM. The like results for `O=C(Nc1ccc(F)c(F)c1)c1ccc(Cl)c(S(=O)(=O)[C@H]2CC3CCC(C2)[C@]3(O)C(O)c2ncco2)c1` (stereo partly drawn) [Example 290] were, in that order, above 25000 nM and below 104 nM. As to `Cc1cccc(C(O)[C@@]2(O)C3CC[C@H]2C[C@H](S(=O)(=O)c2cc(C(=O)Nc4ccc(F)c(F)c4)ccc2Cl)C3)n1` (stereo partly drawn) [Example 294], the CC50 at 3 days in data set [1] (class symbols) was above 25000 nM. Further, in the data set on HBV, the EC50 is below 104 nM. Take `O=C(C[C@]1(O)C2CCC1C[C@@H](S(=O)(=O)c1cc(C(=O)Nc3cc(F)c(F)c(F)c3)ccc1Cl)C2)N[C@H]1CCOC1` [Example 72]: the 50% cytotoxic concentration (CC50) at 3 days in data set [1] (numeric bounds) was above 3000 nM. For the same compound, in the data set on HBV, the EC50 was below 104 nM. In data set [1] (class symbols), `C[C@@H](O)[C@H](O)COC[C@]1(O)C2CCC1C[C@@H](S(=O)(=O)c1cc(C(=O)Nc3cc(F)c(F)c(F)c3)ccc1Cl)C2` [Example 36] came in with a CC50 at 3 days above 25000 nM. In addition, the EC50 in the data set on HBV is below 104 nM.

The compound `C[C@@H](O)CNC(=O)C[C@]1(O)C2CCC1C[C@@H](S(=O)(=O)c1cc(C(=O)Nc3cc(F)c(F)c(F)c3)ccc1Cl)C2` [Example 113] came in with a CC50 at 3 days in data set [1] (numeric bounds) above 6250 nM. In addition, in the data set with HBV, the EC50 was below 104 nM. `COCCNC(=O)C[C@]1(O)C2CCC1C[C@@H](S(=O)(=O)c1cc(C(=O)Nc3cc(F)c(F)c(F)c3)ccc1Cl)C2` [Example 114] registered a half-maximal cytotoxic concentration (CC50) at 3 days in data set [1] (numeric bounds) above 6250 nM. The concentration for a half-maximal effect (EC50) in the data set on HBV was below 104 nM. With `C[C@@H](O)[C@@H](O)[C@]1(O)C2CCC1C[C@@H](S(=O)(=O)c1cc(C(=O)Nc3ccc(F)c(F)c3)ccc1Cl)C2` (mixture of isomers) [Example 172], the cytotoxic concentration (CC50) at 3 days in data set [1] (class symbols) is above 25000 nM. Further, the EC50 in the data set on HBV is below 104 nM. Compound `C[C@H](O)COC[C@]1(O)C2CCC1C[C@@H](S(=O)(=O)c1cc(C(=O)Nc3cc(F)c(F)c(F)c3)ccc1Cl)C2` [Example 131] yielded a 50% cytotoxic concentration (CC50) at 3 days in data set [1] (numeric bounds) above 12500 nM. The concentration giving a half-maximal response (EC50) with HBV is below 104 nM. Consider `O=C(Nc1ccc(F)c(F)c1)c1ccc(Cl)c(S(=O)(=O)[C@H]2CC3CCC(C2)[C@]3(O)C(O)Cc2ccncc2)c1` (stereo partly drawn) [Example 317], for which, in data set [1] (class symbols), the half-maximal cytotoxic concentration (CC50) at 3 days was above 25000 nM. In addition, the EC50 in the data set on HBV was below 104 nM. `O=C(Nc1ccc(F)c(F)c1)c1ccc(Cl)c(S(=O)(=O)[C@H]2CC3CCC(C2)[C@]3(O)CNC(=O)c2ncco2)c1` [Example 167] came in with a CC50 at 3 days in data set [1] (numeric bounds) above 12500 nM. For the same compound, the EC50 in the data set on HBV was below 104 nM.

With `C[C@H](O)CNC(=O)C[C@]1(O)C2CCC1C[C@@H](S(=O)(=O)c1cc(C(=O)Nc3ccc(F)c(F)c3)ccc1Cl)C2` [Example 185], in data set [1] (numeric bounds), the 50% cytotoxic concentration (CC50) at 3 days was above 12500 nM. The EC50 in the data set on HBV is below 104 nM. For `CC(=O)OC[C@H](O)[C@@H](O)[C@@]1(O)C2CC[C@H]1C[C@H](S(=O)(=O)c1cc(C(=O)Nc3cc(F)c(F)c(F)c3)ccc1Cl)C2` (relative stereo) [Example 68], the CC50 at 3 days in data set [1] (class symbols) is above 25000 nM. The EC50 with HBV was below 104 nM. The compound `O=C(C[C@]1(O)C2CCC1C[C@@H](S(=O)(=O)c1cc(C(=O)Nc3cc(F)c(F)c(F)c3)ccc1Cl)C2)NC1(CO)CC1` [Example 117] yielded a cytotoxic concentration (CC50) at 3 days in data set [1] (numeric bounds) above 6250 nM. Further, the concentration giving a half-maximal response (EC50) with HBV is below 104 nM.

In the case of `CC(O)[C@]1(O)CC2CC[C@@H](C1)[C@H]2S(=O)(=O)c1cc(C(=O)Nc2ccc(F)c(F)c2)ccc1Cl` (mixture of isomers) [Example 7], the concentration giving a half-maximal response (EC50) in the data set with HBV was below 104 nM. The same measure, in the same setting: the figure for `COC(=O)CNC(=O)[C@H]1C[C@@H](S(=O)(=O)c2cc(C(=O)Nc3ccc(F)c(F)c3)ccc2Cl)C1` [Example 253b] is above 200 nM; for `CC(C)([C@H]1CC[C@@](C)(O)CC1)S(=O)(=O)c1cc(C(=O)Nc2ccc(F)c(F)c2)ccc1Cl` [Example 237] it is above 200 nM; for `COC(=O)CCNC(=O)[C@H]1C[C@@H](S(=O)(=O)c2cc(C(=O)Nc3ccc(F)c(F)c3)ccc2Cl)C1` [Example 257b] it is above 200 nM. Turning to `O=C(Nc1cc(F)c(F)c(F)c1)c1ccc(Cl)c(S(=O)(=O)[C@@H]2CC3CC[C@@H](C2)[C@@]3(O)CNC(=O)C2CC=CC2)c1` [Example 22], the EC50 in the data set on HBV is below 104 nM. Same read-out and setting: under `O=C(Nc1cc(F)c(F)c(F)c1)c1ccc(Cl)c(S(=O)(=O)[C@@H]2CC3CC[C@@H](C2)[C@@]3(O)CNC(=O)[C@]2(O)CCC[C@H]2O)c1` (relative stereo) [Example 59] stands 100 to 200 nM; under `Cc1ccnc([C@H](O)[C@@]2(O)C3CC[C@H]2C[C@H](S(=O)(=O)c2cc(C(=O)Nc4ccc(F)c(F)c4)ccc2Cl)C3)c1` [Example 296a], below 104 nM. On the same count and under the same terms, the figure for `O=C(C[C@]1(O)C2CCC1C[C@@H](S(=O)(=O)c1cc(C(=O)Nc3cc(F)c(F)c(F)c3)ccc1Cl)C2)Nc1nccs1` [Example 138] is below 104 nM; for `O=C(Nc1ccc(F)c(F)c1)c1ccc(Cl)c(S(=O)(=O)[C@@H]2CC3CC[C@@H](C2)[C@@]3(O)[C@H](O)c2cc(F)ccn2)c1` [Example 299] it is below 104 nM. On the same count and under the same terms, the figure for `C[C@@]1(O)C2CC[C@H]1C[C@H](S(=O)(=O)c1cc(C(=O)Nc3ccc(F)c(C(F)(F)F)c3)ccc1Cl)C2` [Example 31] is 100 to 200 nM. For `C[C@@H](O)COCC1(O)CCC(CS(=O)(=O)c2cc(C(=O)Nc3ccc(F)c(F)c3)ccc2Cl)CC1` (stereo partly drawn) [Example 197], in the data set with HBV, the half-maximal effective concentration (EC50) was above 200 nM. On the same count and under the same terms, the figure for `O=C(Nc1ccc(F)c(F)c1)c1ccc(Cl)c(S(=O)(=O)[C@H]2CC3CCC(C2)[C@H]3O)c1` (single isomer, unassigned) [Example 206] is 100 to 200 nM; for `C[C@H](O)[C@H](O)[C@]1(O)C2CCC1C[C@@H](S(=O)(=O)c1cc(C(=O)Nc3cc(F)c(F)c(F)c3)ccc1Cl)C2` (single isomer, unassigned) [Example 108] it is below 104 nM. Same read-out and setting: the figure for `C[C@H](O)COCC1(O)CCC(CS(=O)(=O)c2cc(C(=O)Nc3ccc(F)c(F)c3)ccc2Cl)CC1` (stereo partly drawn) [Example 198] is 100 to 200 nM.

Turning to `O=C(Nc1cc(F)c(F)c(F)c1)c1ccc(Cl)c(S(=O)(=O)[C@@H]2CC3CC[C@@H](C2)[C@@]3(O)CNC(=O)[C@H]2OCC(O)[C@@H]2O)c1` (stereo partly drawn) [Example 29], the concentration for a half-maximal effect (EC50) in the data set on HBV was above 200 nM.

With `O=C(Nc1ccc(F)c(F)c1)c1ccc(Cl)c(S(=O)(=O)C2CC(C(=O)O)C2)c1` (stereo not drawn) [Example 251], the 50% effective concentration (EC50) in the data set with HBV was above 200 nM. The same measure, in the same setting: under `COC(=O)N[C@H](C)C(=O)NC[C@]1(O)C2CCC1C[C@@H](S(=O)(=O)c1cc(C(=O)Nc3cc(F)c(F)c(F)c3)ccc1Cl)C2` [Example 86] stands below 104 nM; under `CC(C)(O)CNC(=O)C[C@]1(O)CC[C@H](CS(=O)(=O)c2cc(C(=O)Nc3ccc(F)c(F)c3)ccc2Cl)CC1` [Example 196], above 200 nM. Same read-out and setting: under `CC(O)C[C@]1(O)CC[C@@H](CS(=O)(=O)c2cc(C(=O)Nc3ccc(F)c(F)c3)ccc2Cl)CC1` (stereo partly drawn) [Example 224] stands 100 to 200 nM. Regarding `O=C(Nc1ccc(F)c(F)c1)c1ccc(Cl)c(S(=O)(=O)[C@H]2CC3CCC(C2)[C@]3(O)[C@H](O)c2ccc(F)cn2)c1` (single isomer, unassigned) [Example 291b], the EC50 in the data set with HBV was below 104 nM.

For the compound `O=C(Nc1ccc(F)c(F)c1)c1ccc(Cl)c(S(=O)(=O)C2CC3CCC(C2)C3=O)c1` (stereo not drawn) [Example 204], the EC50 with HBV fell in the range of 100 to 200 nM. On the same count and under the same terms, the figure for `O=C(Nc1ccc(F)c(F)c1)c1ccc(Cl)c(S(=O)(=O)[C@H]2CC3CCC(C2)[C@]3(O)C(O)c2cccnc2)c1` (stereo partly drawn) [Example 285] is below 104 nM. The same measure, in the same setting: the figure for `COCCNC(=O)C[C@]1(O)C2CCC1C[C@@H](S(=O)(=O)c1cc(C(=O)Nc3ccc(F)c(F)c3)ccc1Cl)C2` [Example 190] is below 104 nM; for `COC(=O)CCNC(=O)C[C@]1(O)C2CCC1C[C@@H](S(=O)(=O)c1cc(C(=O)Nc3cc(F)c(F)c(F)c3)ccc1Cl)C2` [Example 139] it is above 200 nM; for `CC(C)N(C[C@]1(O)C2CCC1C[C@@H](S(=O)(=O)c1cc(C(=O)Nc3ccc(F)c(F)c3)ccc1Cl)C2)C(C)C` [Example 342] it is below 104 nM. As to `CC(O)C[C@]1(O)CC[C@H](CS(=O)(=O)c2cc(C(=O)Nc3ccc(F)c(F)c3)ccc2Cl)CC1` (stereo partly drawn) [Example 225], in the data set on HBV, the 50% effective concentration (EC50) lay within 100 to 200 nM. Still for that read-out and setting: under `O=C(Nc1ccc(F)c(F)c1)c1ccc(Cl)c(S(=O)(=O)CC2CCC(F)CC2)c1` (stereo not drawn) [Example 226] stands above 200 nM; under `O=C(Nc1ccc(F)c(F)c1)c1ccc(Cl)c(S(=O)(=O)C2CC(O)(CCCO)C2)c1` (stereo not drawn) [Example 241], above 200 nM.

Turning to `O=C(Nc1ccc(F)c(F)c1)c1ccc(Cl)c(S(=O)(=O)[C@H]2CC3CCC(C2)[C@]3(O)CNC(=O)C2CC(O)C2)c1` (stereo partly drawn) [Example 171], in the data set with HBV, the EC50 was above 200 nM.
